Reference: patent publication US9469650B2, “Melampomagnolide B derivatives” (BOARD OF TRUSTEES OF THE UNIVERSITY OF ARKANSAS, priority 2013, dated 2016)

Key:
CCRF-CEM = experiment: panel of 60 human tumor cell lines, growth inhibition (Leukemia); conditions: Homo sapiens; for CC50: read-out: LC50; for IC (TGI): read-out: TGI
SR = experiment: as above; conditions: Homo sapiens; for CC50: read-out: LC50; for IC (TGI): read-out: TGI
LOX IMVI = experiment: panel of 60 human tumor cell lines, growth inhibition (Melanoma); conditions: Homo sapiens; for CC50: read-out: LC50; for IC (TGI): read-out: TGI
M14 = experiment: as above; conditions: Homo sapiens; for GI50: M14; for CC50: M14, read-out: LC50; for IC (TGI): M14, read-out: TGI
MDA-MB-435 = experiment: as above; conditions: Homo sapiens; for GI50: MDA-MB-435; for CC50: MDA-MB-435, read-out: LC50; for IC (TGI): MDA-MB-435, read-out: TGI
SK-MEL-5 = experiment: as above; conditions: Homo sapiens; for GI50: SK-MEL-5; for CC50: SK-MEL-5, read-out: LC50; for IC (TGI): SK-MEL-5, read-out: TGI
U251 = experiment: panel of 60 human tumor cell lines, growth inhibition (CNS Cancer); conditions: Homo sapiens; for GI50: U-251; for CC50: U-251, read-out: LC50; for IC (TGI): U-251, read-out: TGI
HCC-2998 = experiment: panel of 60 human tumor cell lines, growth inhibition (Colon Cancer); conditions: Homo sapiens; for GI50: HCC 2998; for CC50: HCC 2998, read-out: LC50; for IC (TGI): HCC 2998, read-out: TGI
786-0 = experiment: panel of 60 human tumor cell lines, growth inhibition (Renal Cancer); conditions: Homo sapiens; for GI50: 786-0; for CC50: 786-0, read-out: LC50; for IC (TGI): 786-0, read-out: TGI
ACHN = experiment: as above; conditions: Homo sapiens; for CC50: read-out: LC50; for IC (TGI): read-out: TGI
SN12C = experiment: as above; conditions: Homo sapiens; for CC50: read-out: LC50; for IC (TGI): read-out: TGI
UO-31 = experiment: as above; conditions: Homo sapiens; for GI50: UO-31; for CC50: UO-31, read-out: LC50; for IC (TGI): UO-31, read-out: TGI
MCF7 = experiment: panel of 60 human tumor cell lines, growth inhibition (Breast Cancer); conditions: Homo sapiens; for GI50: MCF7, MCF7; for CC50: MCF7, read-out: LC50; for IC (TGI): MCF7, read-out: TGI
MDA-MB-231/ATCC = experiment: as above; conditions: Homo sapiens; for GI50: MDA-MB-231; for CC50: MDA-MB-231, read-out: LC50; for IC (TGI): MDA-MB-231, read-out: TGI
OVCAR-8 = experiment: panel of 60 human tumor cell lines, growth inhibition (Ovarian Cancer); conditions: Homo sapiens; for GI50: OVCAR-8; for CC50: OVCAR-8, read-out: LC50; for IC (TGI): OVCAR-8, read-out: TGI
SK-OV-3 = experiment: as above; conditions: Homo sapiens; for GI50: SK-OV-3; for CC50: SK-OV-3, read-out: LC50; for IC (TGI): SK-OV-3, read-out: TGI
HOP-62 = experiment: panel of 60 human tumor cell lines, growth inhibition (Non-Small Cell Lung Cancer); conditions: Homo sapiens; for GI50: HOP-62; for CC50: HOP-62, read-out: LC50; for IC (TGI): HOP-62, read-out: TGI
NCI-H226 = experiment: as above; conditions: Homo sapiens; for GI50: NCI-H226; for CC50: NCI-H226, read-out: LC50; for IC (TGI): NCI-H226, read-out: TGI
NCI-H460 = experiment: as above; conditions: Homo sapiens; for GI50: NCI-H460; for CC50: NCI-H460, read-out: LC50; for IC (TGI): NCI-H460, read-out: TGI

C=C1C(=O)O[C@H]2[C@H]1CC/C(COC(=O)Nc1n[nH]c(SC)n1)=C\CC[C@@]1(C)O[C@@H]21 [JVM 64, ((1aR,7aS,10aS,10bS,E)-1a-methyl-8-methylene-9-oxo-1a,2,3,6,7,7a,8,9,10a,10b-decahydrooxireno[2′,3′:9,10]cyclodeca[1,2-b]furan-5-yl)methyl-(5-(methylthio)-1H-1,2,4-triazol-3-yl)carbamate]
GI50 (CCRF-CEM; 5-dose assay): 0.62 µM | GI50 (CCRF-CEM; NCI five dose): 0.626 µM | GI50 (CCRF-CEM; leukemia cell line CCRF-CEM): 0.62 µM | CC50 (CCRF-CEM): 55.8 µM | IC (TGI) (CCRF-CEM): 3.56 µM | GI50 (SR): 2.36 µM | CC50 (SR): > 100 µM | IC (TGI) (SR): 7.13 µM | GI50 (LOX IMVI; 5-dose assay): 1.95 µM | GI50 (LOX IMVI; NCI five dose): 1.95 µM | CC50 (LOX IMVI): 19.8 µM | IC (TGI) (LOX IMVI): 5.03 µM | GI50 (M14): 1.59 µM | CC50 (M14): 7.09 µM | IC (TGI) (M14): 3.36 µM | GI50 (MDA-MB-435): 2.24 µM | CC50 (MDA-MB-435): 74.8 µM | IC (TGI) (MDA-MB-435): 7.13 µM | GI50 (SK-MEL-5): 3.13 µM | CC50 (SK-MEL-5): 37.5 µM | IC (TGI) (SK-MEL-5): 12.4 µM | GI50 (U251): 3.62 µM | CC50 (U251): 51 µM | IC (TGI) (U251): 15.8 µM | GI50 (HCC-2998): 7.63 µM | CC50 (HCC-2998): 52.7 µM | IC (TGI) (HCC-2998): 21.5 µM | GI50 (786-0): 1.66 µM | CC50 (786-0): 7.2 µM | IC (TGI) (786-0): 3.45 µM | GI50 (ACHN): 1.75 µM | CC50 (ACHN): 17.8 µM | IC (TGI) (ACHN): 4.89 µM | GI50 (SN12C): 2.9 µM | CC50 (SN12C): 44.6 µM | IC (TGI) (SN12C): 10.7 µM | GI50 (UO-31): 1.98 µM | CC50 (UO-31): 34 µM | IC (TGI) (UO-31): 7.86 µM | GI50 (MCF7; 5-dose assay): 1.33 µM | GI50 (MCF7; NCI five dose): 1.33 µM | CC50 (MCF7): 70.2 µM | IC (TGI) (MCF7): 10.5 µM | GI50 (MDA-MB-231/ATCC): 2.93 µM | CC50 (MDA-MB-231/ATCC): 37.7 µM | IC (TGI) (MDA-MB-231/ATCC): 9.22 µM | GI50 (OVCAR-8): 2.71 µM | CC50 (OVCAR-8): 51.6 µM | IC (TGI) (OVCAR-8): 12.1 µM | GI50 (SK-OV-3): 11.7 µM | CC50 (SK-OV-3): > 100 µM | IC (TGI) (SK-OV-3): 35.8 µM | GI50 (HOP-62): 6.45 µM | CC50 (HOP-62): 64.9 µM | IC (TGI) (HOP-62): 22.3 µM | GI50 (NCI-H226): 10.2 µM | CC50 (NCI-H226): 99.7 µM | IC (TGI) (NCI-H226): 31.9 µM | GI50 (NCI-H460): 4.03 µM | CC50 (NCI-H460): > 100 µM | IC (TGI) (NCI-H460): 18.9 µM

C=C1C(=O)O[C@H]2[C@H]1CC/C(COC(=O)NCCN1CCOCC1)=C\CC[C@@]1(C)O[C@@H]21 [JVM 57, ((1aR,7aS,10aS,10bS,E)-1a-methyl-8-methylene-9-oxo-1a,2,3,6,7,7a,8,9,10a,10b-decahydrooxireno[2′,3′:9,10]-cyclodeca[1,2-b]furan-5-yl)-methyl(2-morpholinoethyl)carbamate]
GI50 (CCRF-CEM): 3.03 µM | GI50 (CCRF-CEM; 5-dose assay): 3.03 µM | CC50 (CCRF-CEM): ≥ 109 µM | IC (TGI) (CCRF-CEM): 11.6 µM | GI50 (SR): 3.65 µM | CC50 (SR): > 100 µM | IC (TGI) (SR): 25.1 µM | GI50 (LOX IMVI): 4.84 µM | GI50 (LOX IMVI; 5-dose assay): 4.84 µM | CC50 (LOX IMVI): 47 µM | IC (TGI) (LOX IMVI): 17.5 µM | GI50 (M14): 7.97 µM | CC50 (M14): 58.5 µM | IC (TGI) (M14): 23.1 µM | GI50 (MDA-MB-435): 5.89 µM | CC50 (MDA-MB-435): 66.9 µM | IC (TGI) (MDA-MB-435): 22 µM | GI50 (SK-MEL-5): 12.7 µM | CC50 (SK-MEL-5): 50.9 µM | IC (TGI) (SK-MEL-5): 25.4 µM | GI50 (U251): 42.9 µM | CC50 (U251): > 100 µM | IC (TGI) (U251): > 100 µM | GI50 (HCC-2998): 19.7 µM | CC50 (HCC-2998): 72.3 µM | IC (TGI) (HCC-2998): 37.7 µM | GI50 (786-0): 11.4 µM | CC50 (786-0): 59.4 µM | IC (TGI) (786-0): 26 µM | GI50 (ACHN): 3.74 µM | CC50 (ACHN): 44.3 µM | IC (TGI) (ACHN): 14.3 µM | GI50 (SN12C): 18.8 µM | CC50 (SN12C): > 100 µM | IC (TGI) (SN12C): 55.2 µM | GI50 (UO-31): 10.7 µM | CC50 (UO-31): 54.5 µM | IC (TGI) (UO-31): 24.1 µM | GI50 (MCF7): 3.54 µM | GI50 (MCF7; 5-dose assay): 3.54 µM | CC50 (MCF7): 53.1 µM | IC (TGI) (MCF7): 14.4 µM | GI50 (MDA-MB-231/ATCC): 13.7 µM | CC50 (MDA-MB-231/ATCC): 64.3 µM | IC (TGI) (MDA-MB-231/ATCC): 29.7 µM | GI50 (OVCAR-8): 12.7 µM | CC50 (OVCAR-8): > 100 µM | IC (TGI) (OVCAR-8): 36.8 µM | GI50 (SK-OV-3): 48.5 µM | CC50 (SK-OV-3): > 100 µM | IC (TGI) (SK-OV-3): > 100 µM | GI50 (HOP-62): 27.4 µM | CC50 (HOP-62): > 100 µM | IC (TGI) (HOP-62): 53 µM | GI50 (NCI-H226): 42.7 µM | CC50 (NCI-H226): > 100 µM | IC (TGI) (NCI-H226): > 100 µM | GI50 (NCI-H460): 27.1 µM | CC50 (NCI-H460): > 100 µM | IC (TGI) (NCI-H460): 87.3 µM
